Laboratory results as given in publication PMC5734728, “The JAK2/STAT3 inhibitor pacritinib effectively inhibits patient-derived GBM brain tumor initiating cells in vitro and when used in combination with temozolomide increases survival in an orthotopic xenograft model” (PLoS ONE, 2017).
Where two headings read alike, the source gives them in different places.

Assays:
in vitro = in vitro ADME, mouse; conditions: mouse liver microsomes, 30-minute incubation; for % Remaining: 1 μM
Method: Working stocks were initially diluted to a concentration of 40 μM in 0.1 M potassium phosphate buffer before addition to the reaction vials. Pooled mouse (CD-1, male) or human (50 donors) liver microsomes were utilized at a final concentration of 0.5 mg/mL. Duplicate wells were used for each time point (0 and 30 minutes). Reactions were carried out at 37°C in a shaker, and the final concentration of DMSO was kept constant at 0.01%. The final volume for each reaction was 100 μL, which included the addition of an NADPH-Regeneration solution (NRS) mix. The NRS mix was comprised of glucose 6-phosphate dehydrogenase (0.4 U/mL), NADP+ (1.3 mM), MgCl2 (3.3 mM), and glucose 6-phosphate (3.3 mM) in assay mixtures. Upon completion of the 30-minute time point, reactions were terminated by the addition of 1.5-volumes (150 μL) of ice-cold acetonitrile with 0.5% formic acid and internal standard. Samples were then centrifuged at 4,000 rpm for 10 minutes to remove debris and precipitated protein. Approximately 150 μL of supernatant was subsequently transferred to a new 96-well microplate for LC-MS analysis. Narrow-window mass extraction LC-MS analysis was performed for all samples using a Waters Xevo quadrupole time-of-flight (QToF) mass spectrometer and an ACQUITY UPLC system, to determine relative peak areas of parent compound.

BT48 = assay: alamarBlue BTIC viability assay, BT48; format: cell-based; conditions: Homo sapiens; BTIC line BT48, alamarBlue
BT53 = assay: alamarBlue BTIC viability assay, BT53; conditions: Homo sapiens, read-out: IC50 (viability)
Method: Accumax (eBioscience) was used to enzymatically dissociate BTIC spheres to single cells. Cells were seeded at 1000 cells per well in 96-well plates and treated with vehicle (DMSO) or drug, 24 hours after plating. BTIC viability was assessed after 7–14 days, once spheres were formed in control wells, by performing the alamarBlue™ (Invitrogen) assay per the manufacturer’s instructions. In brief, the alamar dye was added to each well and plates were read 6 hours later. Fluorescence intensity (excitation 540 nm; emission 590 nm) was measured on a SpectraMax M Series Multi-Mode Microplate reader. […] All experiments were performed in triplicate with a minimum of 3 wells per condition.
BTICs were treated with suboptimal doses of 1 μM pacritinib (CTI Biopharma), 10 μg/mL TMZ (Sigma), or a combination of pacritinib and TMZ. […] Percent inhibition was determined by normalizing each well to the control well (0.1% DMSO).

BT147 = assay: alamarBlue BTIC viability assay, BT147; format: cell-based; conditions: Homo sapiens; BTIC line BT147, alamarBlue
[1] = tested on: BT143 orthotopic xenograft; assay: Kaplan-Meier survival, orthotopic BT143 xenograft; format: in vivo; conditions: BT143 xenografted mice; p < 0.4622 log-rank
p-STAT3 Y705 = assay: western blotting of activated STAT3 in BTICs; format: cell-based, human; conditions: for STAT3 activation (phosphorylation on tyrosine 705): 3 hours
Method: (§1) BTIC spheres were enzymatically dissociated as described above and plated at 10^6 cells/2 mL of media. Cells were treated with vehicle (DMSO), pacritinib, TMZ, or a combination of pacritinib and TMZ and pelleted at select time points (3, 24, and 48 hours). For protein extraction, BTICs were lysed in modified radio-immunoprecipitation assay buffer supplemented with Complete Mini protease (Roche) and Halt phosphatase (Thermo Scientific) inhibitor cocktails. Protein concentrations were quantified using the BioRad protein assay; 20 μg of protein were loaded on 6% or 10% sodium dodecyl sulfate polyacrylamide gel electrophoresis (SDS PAGE) gels and transblotted to nitrocellulose membranes. Blots were stained with primary antibodies followed by horseradish peroxidase-conjugated secondary antibodies. Primary antibodies included p-STAT3 Y705 (1:1000; Cell Signaling Technology), STAT3 (1:1000; Cell Signaling Technology), p-Akt S473 (1:1000; Cell Signaling Technology), Akt (1:1000; Cell Signaling Technology), p-p44/42 MAPK (T202/Y204) (1:1000; Cell Signaling Technology), p44/42 MAPK (1:4000; Cell Signaling Technology), poly (ADP-ribose) polymerase (1:1000; Cell Signaling Technology), β-tubulin (1:1000; Cell Signaling Technology), and Actin (1:1000; Santa Cruz Biotechnology). Secondary antibodies included donkey anti-mouse (1:5000; Cell Signaling Technology), donkey anti-goat (1:5000; Millipore), and goat anti-rabbit (1:5000; Cell Signaling Technology). The blots were washed with tris-buffered saline and tween 20 (T-TBS) (50mM Tris, 150mM NaCl, 0.05% Tween 20, pH 7.6) and blocked with tris-buffered saline (TBS) before imaging. Bands were visualized with the SuperSignal West Pico chemiluminescent solution (Thermo Scientific) and an Amersham™ Imager 600 (General Electric).

[2] = tested on: p-p44/42 MAPK (T202/Y204); assay: western blotting of p-p44/42 MAPK in BTICs; format: cell-based, human
Method: as §1, with “Protein concentrations were quantified using the BioRad protein assay; 20 μg of protein were loaded on 6% or 10% sodium dodecyl sulfate polyacrylamide gel electrophoresis (SDS PAGE) gels and transblotted to nitrocellulose membranes.” left out, “Primary antibodies included p-STAT3 Y705 (1:1000;” left out, “The blots were washed with tris-buffered saline and tween 20 (T-TBS) (50mM Tris, 150mM NaCl, 0.05% Tween 20, pH 7.6) and blocked with tris-buffered saline (TBS) before imaging.” left out

[3] = five-day pharmacokinetics by LC-MS, serum and brain; format: in vivo, mice; conditions: SCID, mouse, five days, mean ± SD, N = 3; for concentration at 300 min: 300 minutes post-dosing; for concentration at 30 min: 30 minutes post-dosing
Method: Animal studies were performed following institutional ethical guidelines and protocols approved by the University of Calgary Health Sciences Animal Care Committee, accredited by the Canadian Council on Animal Care (CCAC). Non-tumor bearing mice were treated with 100 or 200 mg/kg doses of pacritinib by oral gavage for five consecutive days. Three mice per group were used. Post-dosing, blood was collected at 30 and 300 minute time points. The serum was separated by centrifugation. Liquid chromatography-mass spectrometry (LC-MS) was performed to determine the serum concentration of pacritinib. To determine brain penetration, brains were harvested and processed at the 300 minute time point following transcardiac perfusion with PBS. Brains were removed and flash frozen at -80°C. Pacritinib accumulation in the brain was analyzed using LC-MS.

SMILES: C1=C/COCc2cc(ccc2OCCN2CCCC2)Nc2nccc(n2)-c2cccc(c2)COC/1 [pacritinib]
- stability rating (in vitro): Unstable
- % Remaining (in vitro): < 1%
- % Remaining (in vitro; listed as Pacritinib (run 1)): 0.3%
- % Remaining (in vitro; listed as Pacritinib (run 2)): 0.6%
- IC50 (BT48): 1030 nM
- IC50 (BT53): 920 nM
- IC50 (BT147): 990 nM
- efficacy of treatment alone (Kaplan-Meier survival) [1]: no efficacy
- p-STAT3 Y705 (p-STAT3 Y705; BT53, 48 hours, 1 μM pacritinib, 10 μg/mL TMZ or both): dramatically reduced phosphorylation
- STAT3 activation (phosphorylation on tyrosine 705) (p-STAT3 Y705; BT53, low micromolar concentrations): decreased STAT3 activation
- activated STAT3 (phosphorylation on tyrosine 705) (p-STAT3 Y705; BT69, 3 hours): decreased activated STAT3
- STAT3 activation (phosphorylation on tyrosine 705) (p-STAT3 Y705; BT147, 1 μM): strongly decreased STAT3 activation
- p-p44/42 MAPK ([2]; BT53, 5 and 10 μM): decreased p-p44/42 MAPK
- phosphorylation of p44/42 MAPK (T202/Y204) ([2]; BT147 and BT53, low micromolar concentrations, 3 hours): unchanged levels of phosphorylation
- concentration at 300 min ([3]; brain, 100 mg/kg oral gavage, read-out: [Brain]): 910 ± 61 nM
- concentration at 300 min ([3]; brain, 200 mg/kg oral gavage, read-out: [Brain]): 840 ± 20 nM
- concentration at 30 min ([3]; serum, 100 mg/kg oral gavage): 2.66 ± 0.72 µM
- concentration at 300 min ([3]; serum, 100 mg/kg oral gavage, read-out: [Serum]): 510 ± 140 nM
- concentration at 30 min ([3]; serum, 200 mg/kg oral gavage): 12.6 ± 0.98 µM
- concentration at 300 min ([3]; serum, 200 mg/kg oral gavage, read-out: [Serum]): 430 ± 120 nM
